Reference: patent US9861601B2 (The Board of Trustees of the Leland Stanford Junior …, priority 2012, dated 2018)

Experiments:
athymic rat model of PAH = test: SU5416 athymic nude rat model of PAH (PH); format: in vivo; details: for reversal of established PH / PH-related death: treatment started 21 days (3 wk) after SU5416, doses as in b355, assessed at wk 5
Experimental: (§1) In the model, PH was first initiated by a single injection of a VEGFR2 inhibitor, SU5416, and monitored by weekly echocardiography. Survival of the animals was recorded on daily basis. […] After 5 weeks (day 35), animals were sacrificed after right heart catheterization. […] Oral availability of ubenimex was determined by pharmacokinetic analysis.
The athymic nude rat model is an accepted model of severe PAH associated with immune dysregulation. Athymic nude rats (rnu/rnu) (Charles River Laboratories) were used for these studies. Six to eight week old animals were injected subcutaneously (s.c.) with a single dose of either SU5416 (SU) (10 mg/kg) dissolved in DMSO or DMSO (vehicle) alone. All animals were maintained in normoxic conditions. PH progression was monitored by weekly echocardiography (ECHO). Survival of rats was monitored out to wk 5 when they underwent a terminal right heart catheterization. PH was confirmed by ECHO. Hemodynamic measurements included right ventricular systolic pressure (RVSP) determined by right heart catheterization and right ventricular hypertrophy (RVH) determined by the weight ratio of RV/(LV+S) (right ventricle/(left ventricle+septum)).
All animals were sacrificed 5 wk after SU administration for hemodynamic measurements. […] Serial improvement was observed from the time of treatment initiation. Interval improvement was manifested by decreasing RV wall thickness and increasing pulmonary artery acceleration times (PAAT) after initiation of treatment. […] Here again, the compound of Formula III was notable: treatment with that compound yielded an RVH ratio of 0.29. RVH for healthy rats is generally about 0.25.

[1] = system: model of rodent PH utilizing SU and exposure to chronic hypoxia; test: Rodent PH model utilizing SU and chronic hypoxia (animals not prone to immune dysregulation); format: in vivo; details: therapy initiated late in disease development
[2] = Pharmacokinetic analysis of oral ubenimex formulation; format: in vivo, rat; details: PEG-400/HPCD formulation
Experimental: as §1
(not a statin-derivative), is a well-tolerated LTA4H inhibitor that blocks LTB4 formation. […] Ubenimex efficacy in reversing PAH was dose-dependent. The sustained release oral formulation was absorbed rapidly within 2-3 hours and was eliminated from the body with a T1/2 of 12 hours.
A 20% (w/v) aqueous solution of hydroxypropyl-β-cyclodextrin (HPCD) was added to the mixture to bring the volume to 50 ml.

SMILES: CC(C)C[C@H](NC(=O)[C@@H](O)[C@H](N)Cc1ccccc1)C(=O)O [ubenimex, (2S)-2-[[(2S,3R)-3-amino-2-hydroxy-4-phenylbutanoyl]amino]-4-methylpentanoic acid]
- accumulation of 5-LO expressing periarteriolar macrophages and B cells in lungs (athymic rat model of PAH; SU-treated athymic rats): significantly reduced
- in vivo PAEC apoptosis (athymic rat model of PAH; SU-treated athymic rats): reduced
- improvement in RVSP, RVH and survival (athymic rat model of PAH; oral once a day 0.25, 0.5, 0.75, 1 mg/kg, from 3 weeks after SU5416 for 2 weeks): dose dependent improvement
- prevention of PH development and survival (athymic rat model of PAH; systemic therapy initiated when SU was first administered): very effectively prevented PH development and prolonged survival
- reversal of established PH / PH-related death (athymic rat model of PAH): reverses established PH
- reversal of established PH / PH-related death (athymic rat model of PAH; listed as Ubenimex): dose-dependent
- response of PH animals to therapy [1]: did not respond
- time of absorption [2]: ≤ 2 h
- half-life ([2]; athymic, rat, in vivo): 12 h
